Consider twelve compounds from ChEMBL document CHEMBL1201862, “PubChem BioAssay data set” (2004).

Each structure is given as a SMILES string.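 Interpolation was linear, between the two tested concentrations surrounding the appropriate level; five concentrations were tested over 48 hours in 96-well plates. GI50 = concentration required for 50% inhibition of growth.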 The source made the active and inactive calls. No stated cut-off is given here; in the data, active = GI50 up to about 1.1 µM and inactive = higher.

Assay in all cases: NCI anticancer screen, dose series, 48 h
Assay [1] concerns LOX IMVI.
Assay [2] has as its system OVCAR-8.
For assay [3], the system named is M14.
For assay [4], the system named is NCI/ADR-RES.
Assay [5] concerns SR.
For assay [6], the system named is MOLT-4.
The subject of assay [7] is ACHN.
Assay [8] relates to NCI-H522.
In assay [9] the test system is HOP-92.
The subject of assay [10] is SK-MEL-2.
Assay [11] concerns NCI-H23.
In assay [12] the test system is U-251.
Assay [13] has as its system COLO 205.
Assay [14] concerns RPMI-8226.
The test system of assay [15] is OVCAR-4.
Assay [16] has as its system RXF 393.
The test system of assay [17] is UACC-257.
The subject of assay [18] is SW-620.
The test system of assay [19] is HL-60.
Assay [20] deals with BT-549.

With `CCc1cc2c(c3c1CCCC3=O)CC1(C2)Cc2cc(CC)c3c(c2C1)C(=O)CCC3`, the GI50 was > 100 µM (inactive) in assay [1]; > 100 µM (inactive) in [2]; > 100 µM (inactive) in assay [3]; > 100 µM (inactive) in assay [4]; 24.1 µM (inactive) in assay [5]; 35.2 µM (inactive) in [6]. The GI50 in assay [7] was 66.4 µM (inactive); in [8], 62.8 µM (inactive); in [9], 57.9 µM (inactive); in assay [10], > 100 µM (inactive); in assay [11] it was > 100 µM (inactive); in assay [12] it was 87.5 µM (inactive). The GI50 in [13] is > 100 µM (inactive); in assay [14], 46.9 µM (inactive); in [15], 73.6 µM (inactive); in assay [16] it was > 100 µM (inactive); in assay [17] it was 57.4 µM (inactive); in assay [18], > 100 µM (inactive). The GI50 in assay [19] is 61 µM (inactive).

In the case of `O=C1/C(=C/c2ccccc2)CCCC1CN1CCCCC1` (stereo not given), the GI50 is 1.65 µM (inactive) in assay [1]; 2.09 µM (inactive) in assay [2]; 1.89 µM (inactive) in [3]; 3.24 µM (inactive) in assay [4]; 1.43 µM (inactive) in assay [6]; 3.4 µM (inactive) in assay [7]. The GI50 in [8] was 0.242 µM (active); in assay [9], 2.24 µM (inactive); in assay [10] it was 4.56 µM (inactive); in [11], 4.97 µM (inactive); in assay [12] it was 13.3 µM (inactive); in [13], 3 µM (inactive). Also, the GI50 in [14] was > 100 µM (inactive); in assay [15] it was 2.05 µM (inactive); in assay [16], 1.83 µM (inactive); in assay [20] it was 2.95 µM (inactive); in assay [17], 6.07 µM (inactive); in [18], 1.33 µM (inactive).

Consider `Cc1noc(-c2ccc(C(=O)O)[nH]2)c1Br`, for which the GI50 in assay [2] was 15.8 µM (inactive); in assay [3] it was > 100 µM (inactive); in assay [4], 50.5 µM (inactive); in [6] it was > 100 µM (inactive); in assay [7], 38.3 µM (inactive); in [8] it was 39.7 µM (inactive). Besides, the GI50 in [9] was 12.2 µM (inactive); in assay [10] it was 87.9 µM (inactive); in [11] it was 55.6 µM (inactive); in [12], 34.8 µM (inactive); in assay [13] it was 26.1 µM (inactive); in assay [14], > 100 µM (inactive). Also, the GI50 in assay [15] is 31.8 µM (inactive); in assay [16], 23.4 µM (inactive); in [20], > 100 µM (inactive); in assay [17] it was > 100 µM (inactive); in assay [18], 68.9 µM (inactive).

Turning to `CN(C)C(=O)C(F)(F)C(c1ccccc1)C1C(=O)N(C)C(=O)N(C)C1=O` (stereo not given), the GI50 in assay [1], in assay [2], in assay [3], in [4], in assay [6] and in assay [7] was > 100 µM (inactive) each time. Also, the GI50 in assay [9], in assay [10], in assay [11], in [12], in [13] and in [14] was > 100 µM (inactive) in each case. For the same compound, the GI50 in assay [15], in assay [16], in assay [20], in assay [17] and in [18] was > 100 µM (inactive) in each case.

Take `C=CC1(CCC(Br)C(C)(C)Cl)CO1` (stereo not given): the GI50 in assay [2], in assay [3], in assay [4], in assay [6], in assay [7] and in [8] was > 10 µM (inactive) throughout. Also, the GI50 in assay [9], in assay [10], in assay [12], in assay [13], in [14] and in assay [20] was > 10 µM (inactive) in each case. For the same compound, in assay [18], the GI50 was > 10 µM (inactive).

Turning to `Cc1cc2c(cc1Cl)SC(NNC(=O)c1ccccc1)=NS2(=O)=O`, the GI50 in assay [1], in assay [2], in assay [3], in assay [4], in assay [6] and in assay [7] was > 10 µM (inactive) in each case. Also, the GI50 in assay [8], in [10], in assay [11], in assay [12], in [13] and in assay [14] was > 10 µM (inactive) each time. For the same compound, the GI50 in assay [15], in assay [16], in assay [20], in [17], in assay [18] and in [19] was > 10 µM (inactive) in each case.

`C(#C[C@@]12CCC[C@@H]1NCO2)c1ccc2c(c1)OCO2`: the GI50 in [1] was 46.6 µM (inactive); in assay [2] it was 60.8 µM (inactive); in assay [3], 24.7 µM (inactive); in assay [4], 37.5 µM (inactive); in assay [5], 36.8 µM (inactive); in assay [6], 22.2 µM (inactive). Also, the GI50 in assay [7] is 65 µM (inactive); in assay [8], 37.3 µM (inactive); in [9], 35 µM (inactive); in [10] it was > 100 µM (inactive); in [11], > 100 µM (inactive); in [12], 70.5 µM (inactive). Moreover, the GI50 in [13] is 16.9 µM (inactive); in assay [14] it was 36.6 µM (inactive); in [15] it was 85.9 µM (inactive); in assay [16], 49.3 µM (inactive); in assay [17] it was 44.2 µM (inactive); in assay [18] it was 81.3 µM (inactive). Besides, the GI50 in assay [19] is 24 µM (inactive).

Turning to `COc1ccc(-c2cc(-c3ccc(Cl)cc3)n(C3OC(CO)C(O)C(O)C3O)c(=S)c2C#N)cc1` (stereo not given), the GI50 is > 100 µM (inactive) in [1]; 21 µM (inactive) in [2]; 30 µM (inactive) in assay [3]; 42.9 µM (inactive) in assay [5]; 5.79 µM (inactive) in assay [6]; > 100 µM (inactive) in assay [7]. The GI50 in [9] is > 100 µM (inactive); in assay [10] it was 26.9 µM (inactive); in assay [12] it was 28.1 µM (inactive); in assay [13], 51.1 µM (inactive); in assay [14] it was 30.5 µM (inactive); in [15] it was 30 µM (inactive). Further, the GI50 was 35.2 µM (inactive) in assay [20], 47.8 µM (inactive) in assay [17] and 48.2 µM (inactive) in assay [18].

As for `CCOC(=O)/C1=C(\C)N(Cc2ccccc2)C(=O)c2ccccc2C(=O)c2c(OC(C)=O)ccc(OC(C)=O)c21`, the GI50 in [1] is > 100 µM (inactive); in assay [2] it was 67.8 µM (inactive); in assay [4] it was 31.8 µM (inactive); in assay [5], 20.5 µM (inactive); in [6], 59.7 µM (inactive); in [7] it was > 100 µM (inactive). Besides, the GI50 in assay [8] is 34.9 µM (inactive); in assay [9], 12.7 µM (inactive); in assay [10], 97.5 µM (inactive); in assay [12] it was > 100 µM (inactive); in assay [13], 78.7 µM (inactive); in assay [14] it was 18.9 µM (inactive). Besides, the GI50 in assay [15] is 24.9 µM (inactive); in assay [16], 33.2 µM (inactive); in assay [17] it was 61.9 µM (inactive); in assay [18] it was 65.3 µM (inactive); in assay [19], 29.9 µM (inactive).

Regarding `CCCCCCCCCCCCCC1=C(O)C(=O)C(CC2=C(O)C(=O)C(CCCCCCCCCCCCC)=C(O)C2=O)=C(O)C1=O`, the GI50 in assay [1] is > 100 µM (inactive); in [2], > 100 µM (inactive); in [3], > 100 µM (inactive); in [5], 54.1 µM (inactive); in assay [6] it was > 10 µM (inactive); in [7], 30.8 µM (inactive). Further, the GI50 was > 100 µM (inactive) in assay [8]; 75.2 µM (inactive) in assay [9]; > 100 µM (inactive) in assay [10]; > 100 µM (inactive) in assay [11]; 68.2 µM (inactive) in [12]; > 100 µM (inactive) in [13]. In addition, the GI50 was 6.11 µM (inactive) in assay [16]; > 100 µM (inactive) in assay [20]; > 100 µM (inactive) in [17]; > 100 µM (inactive) in [18]; 32.8 µM (inactive) in assay [19].

`COC(=O)c1cccc(C)c1C1CN=NC12Cc1cc(C)cc(C)c1C2=O` (stereo not given): the GI50 in [1] was > 100 µM (inactive); in assay [2] it was 44.8 µM (inactive); in assay [3], 34.8 µM (inactive); in assay [4], 23.1 µM (inactive); in [5], 39 µM (inactive); in [6], 27 µM (inactive). The GI50 is 28.8 µM (inactive) in [7]; 31.3 µM (inactive) in [8]; 47.8 µM (inactive) in [9]; 41.4 µM (inactive) in assay [11]; 54.7 µM (inactive) in assay [12]; 33.5 µM (inactive) in assay [14]. The GI50 in [15] was 51.1 µM (inactive); in assay [16], 29.4 µM (inactive); in assay [17] it was > 100 µM (inactive); in assay [18] it was 29.7 µM (inactive); in assay [19] it was 17.9 µM (inactive).

With `NC(CSC(c1ccccc1)(c1ccccc1)c1ccccc1)C(=O)O` (stereo not given), the GI50 in assay [1] was 0.802 µM (active); in [2] it was 0.904 µM (active); in [3] it was 0.538 µM (active); in [4], 6.67 µM (inactive); in [6] it was 1.24 µM (inactive); in assay [7] it was 7.89 µM (inactive). Also, the GI50 in [8] was 0.59 µM (active); in assay [9], 7.31 µM (inactive); in [10], 0.605 µM (active); in assay [11], 2.29 µM (inactive); in assay [12], 0.69 µM (active); in assay [13], 0.665 µM (active). The GI50 was 0.569 µM (active) in assay [14]; 7.5 µM (inactive) in assay [15]; 0.975 µM (active) in assay [20]; 1.84 µM (inactive) in assay [17]; 0.741 µM (active) in assay [18]; 0.433 µM (active) in assay [19].
